Data on 27 compounds can be found in US6525059B1, “Substituted pyrazoles as p38 kinase inhibitors” (G. D. Searle & Company, priority 1998, dated 2003).

Read-outs that look alike come from different tables or passages of the source. Bounds are passed on as bounds.

In assay [1] the test system is TNF-α. The experiment in a line: LPS stimulation of TNF production by U937 cells. The assay is classed as cell-based, human. The essentials: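 PMA-differentiated human U937 cells (20 ng/ml PMA, 24 h, then 24-48 h rest) at 2 million cells/ml, 0.1% DMSO final, stimulated with E. coli LPS (100 ng/ml final) for 4 h at 37° C. TNF-α in medium measured by ELISA; IC50 in μM.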

Assay [2] concerns TNF alpha. The experiment in a line: Mouse model of LPS-induced TNF alpha production. The assay is classed as in vivo. The following applies: for inhibition in vivo at 100 mg/kg: 100 mpk oral gavage. As to the method:
TNF alpha was induced in 10-12 week old BALB/c female mice by tail vein injection with 100 ng lipopolysaccharide (from S. Typhosa) in 0.2 ml saline. One hour later mice were bled from the retroorbital sinus and TNF concentrations in serum from clotted blood were quantified by ELISA.
Efficacy was determined at each time point as percent inhibition of serum TNF levels relative to LPS injected mice that received vehicle only
wherein in the dose is milligram per kilogram (mpk) administered by oral gavage and the predose time indicates the number of hours before LPS challenge when the compound is administered.

Assay [3] has as its target T1, human p38 kinase alpha (Homo sapiens, UniProt Q16539).
T1 construct: The coding region of the human p38a cDNA was obtained by PCR-amplification from RNA isolated from the human monocyte cell line THP.1; GST (N); made in house; host or cells: E. coli DH10B
The experiment in a line: p38 kinase in vitro assay, phosphorylation of biotinylated PHAS-I with gamma 32P-ATP. The assay is classed as biochemical. The essentials: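 MKK6-activated human p38α phosphorylates biotinylated PHAS-I with γ-32P-ATP in 25 mM HEPES pH 7.5, 10 mM Mg acetate, 50 μM unlabeled ATP, 1% DMSO, 30 °C for 1 h or overnight. Compounds at 100–0.001 μM (10-fold steps, triplicate); substrate captured on streptavidin filter plates and counted by scintillation.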

Assay [4] concerns the target T2, human GST-p38 kinase alpha (Homo sapiens, UniProt Q16539).
T2 construct: The coding region of the human p38a cDNA was obtained by PCR-amplification from RNA isolated from the human monocyte cell line THP.1; made in house; host or cells: E. coli DH10B
The assay is described as follows: p38 kinase in vitro assay, second format, phosphorylation of EGFRP with 33P-ATP. The assay is classed as biochemical. The following applies: EGFRP assay procedure. The essentials:
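Activated human GST-p38α (pre-activated with GST-MKK6, 1 h, 30 °C) phosphorylates EGFR 21-mer peptide (200 μM) with 50 μM ATP plus γ-33P-ATP, pH 7.5, 60 min at room temperature. Unreacted ATP removed by AG 1×8 resin; supernatant scintillation-counted.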

In assay [5] the test system is TNF-α. The assay is described as follows: Rat assay: LPS-challenged rats, serum TNF-α by ELISA. The assay is classed as in vivo. The following applies: Rattus norvegicus, po, 3 mpk oral gavage, read-out: Rat LPS Model % inhib @ dose @ predose time.
[6] abbreviates: Homo sapiens, U-937, LPS-stimulated U937 cells, read-out: U937 IC50.
[7] abbreviates: mouse, oral, 1h before LPS, 30 mpk, read-out: mLPS 1h, 30 mpk percent inhibition.
The mark [8] stands for this setting: p38α in vitro, PHAS-I assay procedure, read-out: p38^1 IC50.
The mark [9] stands for this setting: p38α in vitro, read-out: p38^2 IC50.
Setting [10] is: Homo sapiens, U-937, TNF production, LPS-stimulated human U937 cells, read-out: U937 Cell IC50.
Setting [11] is: Mus musculus, 30 mpk oral gavage, -6h before LPS, read-out: Mouse LPS Model % TNF inhib @ dose @ predose time.
Setting [12] is: read-out: P38 alpha kinase IC50.
The mark [13] stands for this setting: Mus musculus, -6h before LPS, read-out: Mouse LPS Model % TNF inhib @ dose @ predose time.

T1 sequence (Q16539 whole entry): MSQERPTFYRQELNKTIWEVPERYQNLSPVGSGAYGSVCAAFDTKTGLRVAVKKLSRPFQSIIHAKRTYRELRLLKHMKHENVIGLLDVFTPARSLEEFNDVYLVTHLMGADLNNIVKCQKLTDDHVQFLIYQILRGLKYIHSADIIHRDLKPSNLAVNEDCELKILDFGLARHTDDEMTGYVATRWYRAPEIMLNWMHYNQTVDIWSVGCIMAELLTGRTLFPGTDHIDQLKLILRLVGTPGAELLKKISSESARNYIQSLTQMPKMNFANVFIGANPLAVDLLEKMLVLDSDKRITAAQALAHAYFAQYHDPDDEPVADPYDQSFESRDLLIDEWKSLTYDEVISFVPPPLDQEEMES
T2 sequence (Q16539 whole entry): as above

As a reminder, the IC50 is the concentration that inhibits the measured activity by half. Consider `OCCn1cc(-c2ccnc(CCc3ccc(F)cc3)c2)c(-c2ccc(F)cc2)n1` [Example A-272, 3-(4-fluorophenyl)-4-[2-[2-(4-fluorophenyl)ethyl]-4-pyridinyl]-1H-pyrazole-1-ethanol], for which the IC50 came to 0.583 µM in assay [1] (setting [6]) and 0.073 µM in assay [3] (setting [8]). The inhibition in vivo at 30 mg/kg in assay [2] (setting [7]) was -8%.

With `Cn1cc(-c2ccncc2)c(-c2cccc(F)c2)n1` [Example A-229, 4-[3-(3-fluorophenyl)-1-methyl-1H-pyrazol-4-yl]pyridine], in assay [1] (setting [6]), the IC50 is 0.462 µM. Besides, in assay [2] (setting [7]), the inhibition in vivo at 30 mg/kg came out at 91%.

For the compound `Cn1cc(-c2ccncc2)c(-c2ccc(F)c(F)c2)n1` [Example A-242, 4-[3-(3,4-difluorophenyl)-1-methyl-1H-pyrazol-4-yl]pyridine], in assay [4] (setting [9]), the concentration for half-maximal inhibition (IC50) was determined as 0.047 µM. Further, the inhibition in vivo at 30 mg/kg in assay [2] (setting [7]) was 87%.

For the compound `C[C@@H](NC(=O)c1ccccc1C(F)(F)F)c1[nH]nc(-c2ccc(F)cc2)c1-c1ccncc1` [Example B-0368], the 50% inhibitory concentration (IC50) in assay [1] (setting [10]) came out at 0.64 µM; in assay [3] (setting [12]), 1 µM. Besides, the inhibition in vivo at 30 mg/kg in assay [2] (setting [11]) is 37%.

Turning to `Cn1nc(-c2ccc(F)cc2)c(-c2ccncc2)c1C(O)c1ccccc1` (stereo not drawn) [Example A-217, 3-(4-fluorophenyl)-1-methyl -α-phenyl-4-(4-pyridinyl)-1H-pyrazole-5-methanol], the values for the IC50 in assay [1] (setting [6]) and in assay [3] (setting [8]) were 0.349 µM and 0.697 µM, respectively. For the same compound, the inhibition in vivo at 30 mg/kg in assay [2] (setting [7]) was 9%.

`O=C(NCc1[nH]nc(-c2ccc(F)cc2)c1-c1ccncc1)c1c(F)cc(F)cc1F` [Example B-0051]: the inhibition in vivo at 3 mg/kg in assay [5] (4 h, 4h) was found to be 79%. The IC50 in assay [1] (setting [10]) stood at 2.15 µM. Besides, in assay [2] (setting [13]), the inhibition in vivo at 100 mg/kg is 47%.

`Fc1ccc(-c2n[nH]cc2-c2ccncc2)cc1F` [Example A-239, 4-[3-(3,4-difluorophenyl)-1H-pyrazol-4-yl]pyridine]: in assay [4] (setting [9]), the 50% inhibitory concentration (IC50) amounted to 0.034 µM. The inhibition in vivo at 30 mg/kg in assay [2] (setting [7]) was 87%.

With `Cn1cc(-c2ccncc2)c(-c2ccc(Br)cc2)n1` [Example A-243, 4-[3-(4-bromophenyl)-1-methyl-1H-pyrazol-4-yl]pyridine], in assay [4] (setting [9]), the IC50 came to 0.729 µM. Moreover, in assay [2] (setting [7]), the inhibition in vivo at 30 mg/kg turned out to be 82%.

`Cc1c(-c2ccncc2)c(-c2ccc(F)cc2)nn1CC(=O)NCCc1ccc(Oc2ccccc2)cc1` [Example B-2286]: the IC50 in assay [1] (TNF production, LPS-stimulated human U937 cells, read-out: U937 Cell IC50) was determined as 0.78 µM; in assay [3] (setting [12]) it was 0.017 µM. Also, the “Mouse LPS Model % TNF inhib @ dose @ predose time” value in assay [2] (30 mpk oral gavage, 1 h before LPS challenge) is 25% @ 30 mpk @ -1h.

As to `Fc1cc(-c2c[nH]nc2-c2ccc(Cl)cc2)ccn1` [Example A-240, 4-[3-(4-chlorophenyl)-1H-pyrazol-4-yl]-2-fluoropyridine], the IC50 in assay [4] (setting [9]) came out at 0.961 µM. In addition, the inhibition in vivo at 30 mg/kg in assay [2] (setting [7]) stood at 85%.

Take `Brc1ccc(-c2n[nH]cc2-c2ccncc2)cc1` [Example A-241, 4-[3-(4-bromophenyl)-1H-pyrazol-4yl]pyridine]: the 50% inhibitory concentration (IC50) in assay [4] (setting [9]) was found to be 0.338 µM. The inhibition in vivo at 30 mg/kg in assay [2] (setting [7]) stood at 87%.

On to `O=S(=O)(Cc1ccccc1)NCc1[nH]nc(-c2ccc(F)cc2)c1-c1ccncc1` [Example B-0120], for which, in assay [5] (-4 h, -4h before LPS), the inhibition in vivo at 3 mg/kg was 70%. For the same compound, the values for the IC50 in assay [1] (setting [10]) and in assay [3] (setting [12]) were 0.21 µM and 0.008 µM, respectively. The inhibition in vivo at 100 mg/kg in assay [2] (setting [13]) worked out at 77%.

As for `CN(C)CCn1cc(-c2ccnc(N(C)C)c2)c(-c2ccc(F)cc2)n1` [Example A-273, 4-[1-[2-(dimethylamino)ethyl]-3-(4-fluorophenyl)-1H-pyrazol-4-yl]-N,N-dimethyl-2-pyridinamine], the values for the 50% inhibitory concentration (IC50) in assay [1] (setting [6]) and in assay [3] (setting [8]) were above 10 µM and 6.98 µM, respectively. Further, the inhibition in vivo at 30 mg/kg in assay [2] (setting [7]) was determined as 43%.

For the compound `C[C@@H](NC(=O)c1ccccc1I)c1[nH]nc(-c2ccc(F)cc2)c1-c1ccncc1` [Example B-0354], in assay [5] (-4 h, -4h before LPS), the inhibition in vivo at 3 mg/kg was 54%. The IC50 in assay [1] (setting [10]) stood at 0.66 µM; in assay [3] (setting [12]), 1 µM. Besides, the inhibition in vivo at 30 mg/kg in assay [2] (setting [11]) was 51%.

In assay [4] (p38^2 IC50, p38α in vitro), `c1ccc(-c2n[nH]cc2-c2ccncc2)cc1` [Example A-236, 4-(3-phenyl-1H-pyrazol-4-yl)pyridine] had an IC50 of 0.237 µM. In assay [2] (setting [7]), the inhibition in vivo at 30 mg/kg worked out at 94%.

`CN(C)CCNc1cc(-c2c[nH]nc2-c2ccc(F)cc2)ccn1` [Example A-264, N′-[4-[3-(4-fluorophenyl)-1H-pyrazol-4-yl]-2-pyridinyl]-N,N-dimethyl-1,2-ethanediamine]: the IC50 in assay [1] (setting [6]) stood at 0.259 µM. In addition, the inhibition in vivo at 30 mg/kg in assay [2] (setting [7]) worked out at 61%.

`Fc1ccc(-c2n[nH]cc2-c2ccnc(F)c2)cc1` [Example A-249, 2-fluoro-4-[3-(4-fluorophenyl)-1H-pyrazol-4-yl]pyridine]: the IC50 in assay [4] (setting [9]) came to 0.432 µM. The inhibition in vivo at 30 mg/kg in assay [2] (setting [7]) stood at 86%.

As for `O=C(COc1ccc(Cl)cc1)NCc1[nH]nc(-c2ccc(F)cc2)c1-c1ccncc1` [Example B-0093], the figures for the concentration for half-maximal inhibition (IC50) in assay [1] (setting [10]) and in assay [3] (setting [12]) were 1.25 µM and 3.18 µM, respectively. Further, the inhibition in vivo at 30 mg/kg in assay [2] (setting [11]) stood at 30%.

Turning to `CCC(CO)Nc1cc(-c2c[nH]nc2-c2ccc(F)cc2)ccn1` (stereo not drawn) [Example A-213, 2-[[4-[3-(4-fluorophenyl)-1H-pyrazol-4-yl]-2-pyridinyl]amino)-1-butanol], the IC50 in assay [4] (setting [9]) is 0.22 µM. In assay [2] (setting [7]), the inhibition in vivo at 30 mg/kg is 57%.

Take `Fc1ccc(-c2n[nH]cc2-c2ccnc(NCCN3CCOCC3)c2)cc1` [Example A-266, N-[4-[3-(4-fluorophenyl)-1H-pyrazol-4-yl)-2-pyridinyl]-4-morpholineethanamine]: the IC50 in assay [1] (setting [6]) amounted to 0.539 µM. Besides, the inhibition in vivo at 30 mg/kg in assay [2] (setting [7]) turned out to be 0%.

With `Cn1cc(-c2ccncc2)c(-c2ccc(I)cc2)n1` [Example A-251, 4-[3-(4-iodophenyl)-1-methyl-1H-pyrazol-4-yl]pyridine], the IC50 in assay [4] (setting [9]) came out at 0.637 µM. The inhibition in vivo at 30 mg/kg in assay [2] (setting [7]) was 87%.

For the compound `Fc1cccc(-c2n[nH]cc2-c2ccncc2)c1` [Example A-227, 4-[3-(3-fluorophenyl)-1H-pyrazol-4-yl]pyridine], the IC50 in assay [4] (setting [9]) stood at 0.06 µM. Besides, in assay [2] (setting [7]), the inhibition in vivo at 30 mg/kg turned out to be 96%.

As for `Cn1cc(-c2ccncc2)c(-c2ccc(Cl)cc2)n1` [Example A-232, 4-[3-(4-chlorophenyl)-1-methyl-1H-pyrazol-4-yl]pyridine], the 50% inhibitory concentration (IC50) in assay [4] (setting [9]) was determined as 0.048 µM. Moreover, the inhibition in vivo at 30 mg/kg in assay [2] (setting [7]) worked out at 96%.

As to `COc1ccc(S(=O)(=O)NCc2[nH]nc(-c3ccc(F)cc3)c2-c2ccncc2)cc1` [Example B-0117], the values for the IC50 in assay [1] (setting [10]) and in assay [3] (setting [12]) were 1.78 µM and 0.46 µM, respectively. Also, the inhibition in vivo at 30 mg/kg in assay [2] (setting [11]) was 30%.

In the case of `C[C@@H](NS(=O)(=O)c1ccc(F)cc1)c1[nH]nc(-c2ccc(F)cc2)c1-c1ccncc1` [Example B-0385], the inhibition in vivo at 3 mg/kg in assay [5] (-4 h, -4h before LPS) came out at 0%. The concentration for half-maximal inhibition (IC50) is 0.9 µM in assay [1] (setting [10]) and 0.057 µM in assay [3] (setting [12]). In addition, the inhibition in vivo at 30 mg/kg in assay [2] (setting [11]) is 30%.

In the case of `OCCn1cc(-c2ccncc2)c(-c2ccc(F)cc2)n1` [Example A-210, 3-(4-fluorophenyl)-4-(4-pyridinyl)-1H-pyrazole-1-ethanol], the results for the IC50 in assay [1] (setting [6]) and in assay [3] (setting [8]) were 0.198 µM and 0.16 µM, respectively. Besides, the inhibition in vivo at 30 mg/kg in assay [2] (setting [7]) came out at 93%.

For `Fc1ccc(-c2nn(CCN3CCOCC3)cc2-c2ccnc(F)c2)cc1` [Example A-269, 4-[2-[3-(4-fluorophenyl)-4-(2-fluoro-4-pyridinyl)-1H-pyrazol-1-yl]ethyl]morpholine], the IC50 in assay [1] (setting [6]) was above 10 µM. For the same compound, the inhibition in vivo at 30 mg/kg in assay [2] (setting [7]) came to 51%.
